# Read-outs that look alike come from different tables or passages of the source.
# Experiments:
# CYP3A4 = CYP3A4 (Homo sapiens (Human), UniProt P08684); assay: CYP Inhibition Assay, CYP3A4; assay type: in vitro ADME; conditions: human liver microsomes;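 note: CYP probe substrate held near its Km, inhibition judged from metabolite formation quantified by LC-MS/MS against a standard curve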
# hERG [1] = target: T1, hERG (Homo sapiens (Human), UniProt Q12809); assay: hERG screening, Rubidium Efflux (hERG-CHO cells); assay type: cell-based; conditions: CHO cells expressing hERG; for inhibition at 30 min, 1.5 uG/mL: pH 7.4, 1.5 uG/mL, read-out: HERG Rb efflux % Inhib 1.5 uG/mL; for inhibition at 30 min, 5 uG/mL: pH 7.4, 5 uG/mL, read-out: HERG Rb efflux % Inhib 5 uG/mL
# [2] = target: BACE1 (Aβ40 in HEK293-APPswe/lon cells) (Homo sapiens (Human), UniProt P56817); assay: BACE Inhibitor Whole Cell IC50 Determination Using HEK293-APPswe/lon Cells (Aβ40); assay type: cell-based; conditions: 4 hours
# [3] = target: soluble human BACE1 catalytic domain (Homo sapiens (Human), UniProt P56817); assay: BACE1 HTRF FRET Assay; assay type: biochemical; conditions: Ki calculated from IC50 with Cheng-Prusoff equation;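 note: cleavage of a quenched APP Swedish mutant peptide (QSY7 quencher, Europium donor) measured as rise in 620 nm fluorescence after 1.5 h at 30 °C, inhibition suppresses signal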
# CYP2C9 = CYP2C9 (Homo sapiens (Human), UniProt P11712); assay: CYP Inhibition Assay, CYP2C9; assay type: in vitro ADME; conditions: human liver microsomes;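 note: probe substrate held close to its Km, with metabolite formation quantified by LC-MS/MS against a calibration curve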
# CYP2D6 = CYP2D6 (Homo sapiens (Human), UniProt P10635); assay: CYP Inhibition Assay, CYP2D6; assay type: in vitro ADME; conditions: human liver microsomes
# hERG [4] = target: T1, hERG; assay: hERG screening, IonWorks Quattro (hERG L929 cells); assay type: cell-based; conditions: L929 cells expressing hERG; for inhibition at 5 min, 1 uM: read-out: HERG Ionworks % Inhib 1 uM; for inhibition at 5 min, 10 uM: read-out: HERG Ionworks % Inhib 10 uM
# human liver Cathepsin D = human liver Cathepsin D (Homo sapiens (Human), UniProt P07339); assay: Human Cathepsin D FRET Assay; assay type: biochemical; conditions: selectivity with respect to Cathepsin D vs BACE1
# [5] = 30 min pre-incubation with NADPH, read-out: CYP 3A4 IC50 pre
# [6] = co-incubation, read-out: CYP 3A4 IC50 co
# [7] = 30 min pre-incubation with NADPH, read-out: CYP 2C9 IC50 pre
# [8] = co-incubation, read-out: CYP 2C9 IC50 co
# [9] = 30 min pre-incubation with NADPH, read-out: CYP 2D6 IC50 pre
# [10] = co-incubation, read-out: CYP 2D6 IC50 co
# Sequence of CYP3A4 (P08684 whole entry): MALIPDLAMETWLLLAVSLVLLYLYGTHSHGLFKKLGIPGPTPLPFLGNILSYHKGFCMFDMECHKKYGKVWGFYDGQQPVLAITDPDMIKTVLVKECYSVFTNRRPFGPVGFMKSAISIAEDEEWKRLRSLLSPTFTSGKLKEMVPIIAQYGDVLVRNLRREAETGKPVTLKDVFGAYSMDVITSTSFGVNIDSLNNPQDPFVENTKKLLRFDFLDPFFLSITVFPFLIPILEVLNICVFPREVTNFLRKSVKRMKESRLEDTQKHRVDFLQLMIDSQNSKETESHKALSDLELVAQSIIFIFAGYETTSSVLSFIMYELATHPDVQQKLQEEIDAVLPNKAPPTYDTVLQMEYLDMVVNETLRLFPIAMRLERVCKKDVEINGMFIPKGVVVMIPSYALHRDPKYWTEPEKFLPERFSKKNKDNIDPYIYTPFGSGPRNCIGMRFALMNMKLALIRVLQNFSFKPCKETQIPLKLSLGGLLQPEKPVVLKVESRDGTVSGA
# Sequence of soluble human BACE1 catalytic domain (P56817 75-416): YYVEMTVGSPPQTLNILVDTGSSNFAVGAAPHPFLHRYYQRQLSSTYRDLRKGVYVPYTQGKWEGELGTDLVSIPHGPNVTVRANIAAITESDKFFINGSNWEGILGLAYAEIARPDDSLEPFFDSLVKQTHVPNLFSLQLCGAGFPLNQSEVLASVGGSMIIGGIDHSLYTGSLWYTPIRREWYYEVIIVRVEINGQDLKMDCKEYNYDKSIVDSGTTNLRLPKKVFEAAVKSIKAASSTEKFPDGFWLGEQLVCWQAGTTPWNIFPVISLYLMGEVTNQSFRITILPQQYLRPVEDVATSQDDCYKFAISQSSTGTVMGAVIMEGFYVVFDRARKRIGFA
# Sequence of BACE1 (Aβ40 in HEK293-APPswe/lon cells) (P56817 46-501): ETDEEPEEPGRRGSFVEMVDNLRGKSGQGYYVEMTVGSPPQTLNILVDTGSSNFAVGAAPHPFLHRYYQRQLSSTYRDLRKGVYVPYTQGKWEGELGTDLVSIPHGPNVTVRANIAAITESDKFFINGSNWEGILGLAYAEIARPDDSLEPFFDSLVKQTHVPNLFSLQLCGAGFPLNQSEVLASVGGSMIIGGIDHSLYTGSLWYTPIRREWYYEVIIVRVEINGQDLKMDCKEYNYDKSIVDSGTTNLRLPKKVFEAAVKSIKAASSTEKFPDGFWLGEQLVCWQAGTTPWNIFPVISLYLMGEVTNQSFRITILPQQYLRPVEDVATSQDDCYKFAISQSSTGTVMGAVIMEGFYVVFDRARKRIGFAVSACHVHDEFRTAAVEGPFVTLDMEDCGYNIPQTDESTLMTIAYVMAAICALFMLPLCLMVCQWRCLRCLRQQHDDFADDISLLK
# Sequence of human liver Cathepsin D (P07339 65-412): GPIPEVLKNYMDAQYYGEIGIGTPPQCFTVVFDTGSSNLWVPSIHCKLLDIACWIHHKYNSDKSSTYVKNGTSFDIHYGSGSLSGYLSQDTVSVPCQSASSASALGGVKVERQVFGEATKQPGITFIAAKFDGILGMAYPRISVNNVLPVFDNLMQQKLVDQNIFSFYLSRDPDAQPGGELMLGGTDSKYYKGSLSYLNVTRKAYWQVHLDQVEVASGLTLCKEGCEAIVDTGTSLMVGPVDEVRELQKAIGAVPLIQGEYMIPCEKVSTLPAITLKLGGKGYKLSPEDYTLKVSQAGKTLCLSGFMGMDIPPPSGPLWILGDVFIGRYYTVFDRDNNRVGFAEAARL
# Sequence of human liver Cathepsin D (P07339 169-412): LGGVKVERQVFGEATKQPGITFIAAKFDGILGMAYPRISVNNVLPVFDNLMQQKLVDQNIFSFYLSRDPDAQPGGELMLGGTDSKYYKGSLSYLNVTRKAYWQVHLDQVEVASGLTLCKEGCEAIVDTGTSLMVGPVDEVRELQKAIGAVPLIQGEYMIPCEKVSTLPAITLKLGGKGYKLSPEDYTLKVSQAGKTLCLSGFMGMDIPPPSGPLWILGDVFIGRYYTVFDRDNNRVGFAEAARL
# Sequence of CYP2C9 (P11712 whole entry): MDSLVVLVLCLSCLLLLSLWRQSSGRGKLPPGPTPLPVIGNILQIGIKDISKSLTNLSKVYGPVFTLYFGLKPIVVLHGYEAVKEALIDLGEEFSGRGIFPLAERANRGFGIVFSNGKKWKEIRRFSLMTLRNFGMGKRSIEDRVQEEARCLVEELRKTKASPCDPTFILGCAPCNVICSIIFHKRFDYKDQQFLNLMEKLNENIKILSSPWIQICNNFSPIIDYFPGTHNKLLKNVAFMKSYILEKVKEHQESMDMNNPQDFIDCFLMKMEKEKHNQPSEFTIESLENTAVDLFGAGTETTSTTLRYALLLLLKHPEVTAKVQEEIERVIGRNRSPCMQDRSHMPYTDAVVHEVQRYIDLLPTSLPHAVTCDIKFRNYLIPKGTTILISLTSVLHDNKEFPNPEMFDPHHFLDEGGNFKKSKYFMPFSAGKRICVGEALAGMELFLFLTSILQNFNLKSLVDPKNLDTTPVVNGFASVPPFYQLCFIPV
# Sequence of CYP2D6 (P10635 whole entry): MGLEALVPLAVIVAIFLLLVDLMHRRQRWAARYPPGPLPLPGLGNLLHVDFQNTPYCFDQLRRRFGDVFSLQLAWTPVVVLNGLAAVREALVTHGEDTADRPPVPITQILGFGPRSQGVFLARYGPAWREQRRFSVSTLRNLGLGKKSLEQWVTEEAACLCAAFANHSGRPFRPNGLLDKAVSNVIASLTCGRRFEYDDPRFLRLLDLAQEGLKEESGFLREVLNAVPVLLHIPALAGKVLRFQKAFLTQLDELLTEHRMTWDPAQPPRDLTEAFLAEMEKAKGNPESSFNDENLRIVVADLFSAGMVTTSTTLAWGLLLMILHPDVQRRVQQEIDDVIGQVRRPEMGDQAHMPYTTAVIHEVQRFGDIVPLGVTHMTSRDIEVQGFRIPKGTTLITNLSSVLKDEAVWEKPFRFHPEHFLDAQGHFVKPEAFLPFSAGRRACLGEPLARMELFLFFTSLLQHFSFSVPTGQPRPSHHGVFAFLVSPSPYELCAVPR
# T1 sequence (Q12809 whole entry): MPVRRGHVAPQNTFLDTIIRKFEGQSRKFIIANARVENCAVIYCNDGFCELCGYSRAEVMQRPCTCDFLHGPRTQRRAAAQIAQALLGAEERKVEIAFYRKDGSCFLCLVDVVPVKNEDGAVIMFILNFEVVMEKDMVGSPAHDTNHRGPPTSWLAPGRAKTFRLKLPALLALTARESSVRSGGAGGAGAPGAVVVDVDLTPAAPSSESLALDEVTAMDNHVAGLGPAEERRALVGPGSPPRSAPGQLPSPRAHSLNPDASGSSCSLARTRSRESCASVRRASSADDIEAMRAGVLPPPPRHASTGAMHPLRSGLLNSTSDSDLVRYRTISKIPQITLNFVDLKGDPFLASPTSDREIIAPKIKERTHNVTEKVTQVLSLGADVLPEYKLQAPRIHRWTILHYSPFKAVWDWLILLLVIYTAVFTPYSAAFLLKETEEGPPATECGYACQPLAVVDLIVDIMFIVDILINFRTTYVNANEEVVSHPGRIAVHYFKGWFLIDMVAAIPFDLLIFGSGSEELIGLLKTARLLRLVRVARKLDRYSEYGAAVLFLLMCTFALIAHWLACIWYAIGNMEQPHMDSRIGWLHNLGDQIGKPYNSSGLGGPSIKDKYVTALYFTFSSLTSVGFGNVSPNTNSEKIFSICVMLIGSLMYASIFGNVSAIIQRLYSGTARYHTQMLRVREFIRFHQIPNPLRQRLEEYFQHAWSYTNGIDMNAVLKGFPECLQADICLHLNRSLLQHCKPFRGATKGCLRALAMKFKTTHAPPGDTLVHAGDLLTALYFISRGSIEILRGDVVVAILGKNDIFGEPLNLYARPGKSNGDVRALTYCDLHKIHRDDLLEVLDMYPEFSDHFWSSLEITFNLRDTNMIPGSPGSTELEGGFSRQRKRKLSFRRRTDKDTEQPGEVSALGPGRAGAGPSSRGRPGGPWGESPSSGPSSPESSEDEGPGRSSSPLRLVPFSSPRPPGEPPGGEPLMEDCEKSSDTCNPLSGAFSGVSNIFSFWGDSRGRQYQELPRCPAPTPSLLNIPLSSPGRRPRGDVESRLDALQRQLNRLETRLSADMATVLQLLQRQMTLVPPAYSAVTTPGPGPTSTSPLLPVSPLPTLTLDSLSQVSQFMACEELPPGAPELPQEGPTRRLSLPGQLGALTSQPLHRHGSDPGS
SMILES,IC50 (CYP3A4; [5]),IC50 (CYP3A4; [6]),IC50 [2],Ki [3],IC50 (CYP2C9; [7]),IC50 (CYP2C9; [8]),IC50 (CYP2D6; [9]),IC50 (CYP2D6; [10]),CathD Selectivity (human liver Cathepsin D),"inhibition at 30 min, 1.5 uG/mL (hERG [1])","inhibition at 30 min, 5 uG/mL (hERG [1])","inhibition at 5 min, 1 uM (hERG [4])","inhibition at 5 min, 10 uM (hERG [4])"
Cc1nc(N2C[C@H]3C(=O)N(C)C(=N)N[C@@]3(c3ccc(F)cc3)C2)nc(C)c1F [Example 28],> 30 µM,> 30 µM,0.114 µM,0.064 µM,> 30 µM,> 30 µM,~30 µM,23.3 µM,,13%,14%,,
COc1nc(N2C[C@H]3C(=O)N(C)C(N)=N[C@@]3(c3c(F)cc(F)c(F)c3F)C2)nc(C)c1F [Example 29],,,,,> 30 µM,> 30 µM,> 30 µM,> 30 µM,,-4%,3%,,
CCc1nc(N2C[C@H]3C(=O)N(C)C(=N)N[C@@]3(c3ccc(F)cc3)C2)nc(OC)c1F [Example 30],> 30 µM,> 30 µM,0.022 µM,0.0061 µM,> 30 µM,> 30 µM,> 30 µM,> 30 µM,163,,,2%,31%
CCc1nc(N2C[C@H]3C(=O)N(C)C(=N)N[C@@]3(c3cc(F)ccc3F)C2)nc(OC)c1F [Example 31],> 20 µM,> 20 µM,0.031 µM,0.0069 µM,> 20 µM,> 20 µM,> 20 µM,> 20 µM,596,,,21%,88%
CCc1nc(N2C[C@H]3C(=O)N(C)C(=N)N[C@@]3(c3ccc(F)cc3F)C2)nc(OC)c1F [Example 32],> 20 µM,> 20 µM,0.026 µM,0.0053 µM,> 20 µM,> 20 µM,> 20 µM,> 20 µM,310,,,19%,95%

# Continued, in another order:
IC50 (CYP3A4; [5]),IC50 (CYP3A4; [6]),IC50 [2],Ki [3],IC50 (CYP2C9; [7]),IC50 (CYP2C9; [8]),IC50 (CYP2D6; [9]),IC50 (CYP2D6; [10]),CathD Selectivity (human liver Cathepsin D),SMILES,"inhibition at 30 min, 1.5 uG/mL (hERG [1])","inhibition at 30 min, 5 uG/mL (hERG [1])","inhibition at 5 min, 1 uM (hERG [4])","inhibition at 5 min, 10 uM (hERG [4])"
> 20 µM,> 20 µM,0.086 µM,0.0056 µM,> 20 µM,> 20 µM,> 20 µM,> 20 µM,88,COc1nc(N2C[C@H]3C(=O)N(C)C(=N)N[C@@]3(c3cc(F)ccc3F)C2)nc(C2CC2)c1F [Example 34],,,7%,65%
~20 µM,> 20 µM,0.09 µM,0.0065 µM,~20 µM,~20 µM,> 20 µM,> 20 µM,634,COc1nc(N2C[C@H]3C(=O)N(C)C(=N)N[C@@]3(c3cc(F)ccc3F)C2)nc(C2CC2)c1Cl [Example 35],,,5%,23%
> 20 µM,> 20 µM,0.063 µM,0.014 µM,> 20 µM,> 20 µM,> 20 µM,> 20 µM,1202,COc1nc(N2C[C@H]3C(=O)N(C)C(=N)N[C@@]3(c3cccc(C#N)c3)C2)nc(C)c1F [Example 36],,,3%,37%
> 20 µM,> 20 µM,0.031 µM,0.0027 µM,> 20 µM,> 20 µM,> 20 µM,> 20 µM,209,COc1nc(N2C[C@H]3C(=O)N(C)C(=N)N[C@@]3(c3ccc(F)cc3F)C2)nc(C2CC2)c1F [Example 38],,,12%,63%
> 20 µM,> 20 µM,0.021 µM,0.016 µM,> 20 µM,> 20 µM,> 20 µM,> 20 µM,116,COc1nc(N2C[C@H]3C(=O)N(C)C(=N)N[C@@]3(c3ccc(F)cc3F)C2)nc(CO)c1F [Example 43],,,6%,27%

# From US8541427B2, “Phenyl-substituted 2-imino-3-methyl pyrrolo pyrimidinone compounds as BACE-1 inhibitors, compositions, and their use” (Merck, Sharp & Dohme, Corp., priority 2008, dated 2013)
